Active and inactive are the calls of the source.
Columns and labels:
[1] = molecular target: T1, Fatty acid synthase (Homo sapiens, UniProt P49327); assay: FAS thioesterase domain inhibitors, dose response, biochemical, endpoint fluorescence intensity, uHTS hits (AID 624327); format: functional;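 note: fluorescence from hydrolysis of an O-methyl fluorescein acyl ester substrate by the enzyme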
[2] = molecular target: T1, Fatty acid synthase; assay: FAS thioesterase domain inhibitors, dose response, biochemical, kinetic fluorescence intensity (AID 624326); format: functional;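 note: rate of fluorescence rise from hydrolysis of a fluorogenic O-methyl fluorescein ester substrate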
[3] = HEp-2 cell cytotoxicity, dose response, cytotoxicity control for RSV inhibitor project, HTS (AID 2410); format: functional; conditions: human respiratory syncytial virus
[4] = molecular target: T2, Short transient receptor potential channel 4 (Mus musculus, UniProt Q9QUQ5); assay: mouse TRPC4 channel inhibitors, dose response, cell-based, HEK293 TRPC4/mu-opioid, Fluo-4 calcium (AID 434942); format: functional;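 note: potency of inhibitors blocking the TRPC4 calcium response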
T2 sequence (Q9QUQ5 whole entry): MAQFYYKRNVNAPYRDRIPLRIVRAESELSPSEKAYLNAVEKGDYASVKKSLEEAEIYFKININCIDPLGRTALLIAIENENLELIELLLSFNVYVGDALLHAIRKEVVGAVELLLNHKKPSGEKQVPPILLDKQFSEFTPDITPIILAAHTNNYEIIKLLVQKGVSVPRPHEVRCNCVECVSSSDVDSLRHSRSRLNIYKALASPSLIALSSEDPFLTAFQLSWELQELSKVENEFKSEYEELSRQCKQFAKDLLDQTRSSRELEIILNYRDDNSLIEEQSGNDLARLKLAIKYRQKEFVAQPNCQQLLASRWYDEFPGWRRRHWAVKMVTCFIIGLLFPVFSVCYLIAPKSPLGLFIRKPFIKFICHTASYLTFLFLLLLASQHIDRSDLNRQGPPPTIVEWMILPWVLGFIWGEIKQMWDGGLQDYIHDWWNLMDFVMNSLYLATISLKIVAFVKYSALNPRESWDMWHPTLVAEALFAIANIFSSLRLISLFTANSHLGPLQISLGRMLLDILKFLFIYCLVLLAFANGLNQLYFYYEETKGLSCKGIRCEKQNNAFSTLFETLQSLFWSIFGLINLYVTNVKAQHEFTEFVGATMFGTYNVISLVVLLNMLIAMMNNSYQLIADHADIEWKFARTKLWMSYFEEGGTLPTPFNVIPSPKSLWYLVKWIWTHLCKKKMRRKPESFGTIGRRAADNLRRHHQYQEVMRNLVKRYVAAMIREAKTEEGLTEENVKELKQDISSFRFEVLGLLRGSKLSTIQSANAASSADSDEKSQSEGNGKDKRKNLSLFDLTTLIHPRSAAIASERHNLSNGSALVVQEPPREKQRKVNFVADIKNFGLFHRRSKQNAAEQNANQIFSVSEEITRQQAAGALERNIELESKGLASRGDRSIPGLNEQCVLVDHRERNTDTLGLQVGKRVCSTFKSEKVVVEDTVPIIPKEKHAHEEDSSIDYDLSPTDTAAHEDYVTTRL

[5] = inhibitors of intracellular T. cruzi replication, confirmation, NIH3T3 host cells, beta-gal luminescence (AID 2044); format: functional, cell-based;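 note: intracellular parasites grown in NIH/3T3 mouse fibroblasts as host cells; luminescent beta-galactosidase reporter signal from transgenic T. cruzi replicating inside host cells; inhibitors lower the luminescence signal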
[6] = cytotoxicity toward NIH3T3 fibroblasts, dose response, counter-screen, cell-based, ATP luminescence, mouse fibroblasts (AID 2010); format: functional;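 note: cells exposed to compound for about 90 hours before reading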
[7] = microbe, parasite or virus in culture; format: functional; conditions: Mycobacterium tuberculosis
[8] = system: INS1; assay: beta cell apoptosis inhibitors, cytokine rescue, dose response, luminescence, retest (AID 449756); format: functional, cell-based; conditions: Rattus norvegicus;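 note: cell death triggered by IL-1 beta plus TNF-alpha plus IFN-gamma mixture; protective hits raise ATP signal compared with cytokine alone wells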
[9] = cells; format: functional, cell-based
[10] = cells; format: functional, cell-based; remark: listed apart in the source
[11] = molecular target: Heat shock protein HSP 90-alpha (Homo sapiens, UniProt P07900); format: functional, organism-based
[12] = molecular target: T3, Leucine aminopeptidase (Plasmodium falciparum 3D7, UniProt Q8IL11); assay: P. falciparum M17LAP inhibitors, primary screen, biochemical, fluorogenic H-Leu-NHMec substrate, 1536-well (AID 1619); format: functional
T3 sequence (Q8IL11 whole entry): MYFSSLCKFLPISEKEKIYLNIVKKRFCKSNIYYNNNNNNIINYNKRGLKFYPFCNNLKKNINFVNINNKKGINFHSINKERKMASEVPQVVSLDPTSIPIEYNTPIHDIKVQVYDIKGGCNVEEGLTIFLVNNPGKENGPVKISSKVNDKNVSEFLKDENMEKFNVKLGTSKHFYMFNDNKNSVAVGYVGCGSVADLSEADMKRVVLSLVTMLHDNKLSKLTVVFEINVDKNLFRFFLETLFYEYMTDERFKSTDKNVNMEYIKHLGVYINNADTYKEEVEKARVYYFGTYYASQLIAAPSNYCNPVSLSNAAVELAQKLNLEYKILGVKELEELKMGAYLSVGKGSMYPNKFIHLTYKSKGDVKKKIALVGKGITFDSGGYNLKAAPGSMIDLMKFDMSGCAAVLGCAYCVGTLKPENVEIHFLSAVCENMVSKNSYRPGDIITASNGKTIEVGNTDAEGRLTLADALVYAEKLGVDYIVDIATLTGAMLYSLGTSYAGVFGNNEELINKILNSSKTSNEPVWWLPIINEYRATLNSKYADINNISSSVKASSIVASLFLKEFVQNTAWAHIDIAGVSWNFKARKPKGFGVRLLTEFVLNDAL

[13] = molecular target: T4, Aminopeptidase N (Plasmodium falciparum FcB1/Columbia, UniProt O96935); assay: P. falciparum M1AAP inhibitors, biochemical, fluorogenic H-Leu-NHMec substrate, 1536-well (AID 1445); parameters: species or system Plasmodium falciparum 3D7, 3D7
T4 sequence (O96935 whole entry): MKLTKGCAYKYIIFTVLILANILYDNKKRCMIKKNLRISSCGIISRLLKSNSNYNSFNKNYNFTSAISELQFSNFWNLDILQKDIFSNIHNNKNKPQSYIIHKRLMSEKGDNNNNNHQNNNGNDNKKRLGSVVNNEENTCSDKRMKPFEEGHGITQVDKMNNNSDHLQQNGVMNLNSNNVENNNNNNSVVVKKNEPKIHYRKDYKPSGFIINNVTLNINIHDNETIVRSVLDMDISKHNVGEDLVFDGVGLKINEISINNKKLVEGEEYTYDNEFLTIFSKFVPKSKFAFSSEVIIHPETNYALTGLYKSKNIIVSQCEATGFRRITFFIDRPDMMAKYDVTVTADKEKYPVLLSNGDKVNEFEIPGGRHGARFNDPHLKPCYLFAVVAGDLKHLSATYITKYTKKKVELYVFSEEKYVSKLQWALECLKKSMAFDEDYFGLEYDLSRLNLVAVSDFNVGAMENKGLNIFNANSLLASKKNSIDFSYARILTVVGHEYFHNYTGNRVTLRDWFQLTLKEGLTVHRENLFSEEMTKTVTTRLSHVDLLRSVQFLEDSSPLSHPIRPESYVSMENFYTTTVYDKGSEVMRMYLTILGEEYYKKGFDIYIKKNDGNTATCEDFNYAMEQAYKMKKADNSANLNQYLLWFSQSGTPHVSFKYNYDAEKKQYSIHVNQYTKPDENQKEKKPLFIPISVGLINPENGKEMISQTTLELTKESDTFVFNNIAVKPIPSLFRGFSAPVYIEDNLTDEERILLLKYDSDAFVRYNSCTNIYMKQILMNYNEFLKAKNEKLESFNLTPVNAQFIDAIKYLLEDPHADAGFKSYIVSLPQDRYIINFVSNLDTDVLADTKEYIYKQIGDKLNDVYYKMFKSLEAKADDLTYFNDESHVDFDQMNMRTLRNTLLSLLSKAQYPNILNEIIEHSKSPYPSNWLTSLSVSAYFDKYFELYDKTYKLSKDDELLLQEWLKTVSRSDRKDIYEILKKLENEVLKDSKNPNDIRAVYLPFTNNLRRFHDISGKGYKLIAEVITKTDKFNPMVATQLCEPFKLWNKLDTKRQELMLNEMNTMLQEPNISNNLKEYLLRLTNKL

T1 sequence (P49327 whole entry, the tested form may be a part): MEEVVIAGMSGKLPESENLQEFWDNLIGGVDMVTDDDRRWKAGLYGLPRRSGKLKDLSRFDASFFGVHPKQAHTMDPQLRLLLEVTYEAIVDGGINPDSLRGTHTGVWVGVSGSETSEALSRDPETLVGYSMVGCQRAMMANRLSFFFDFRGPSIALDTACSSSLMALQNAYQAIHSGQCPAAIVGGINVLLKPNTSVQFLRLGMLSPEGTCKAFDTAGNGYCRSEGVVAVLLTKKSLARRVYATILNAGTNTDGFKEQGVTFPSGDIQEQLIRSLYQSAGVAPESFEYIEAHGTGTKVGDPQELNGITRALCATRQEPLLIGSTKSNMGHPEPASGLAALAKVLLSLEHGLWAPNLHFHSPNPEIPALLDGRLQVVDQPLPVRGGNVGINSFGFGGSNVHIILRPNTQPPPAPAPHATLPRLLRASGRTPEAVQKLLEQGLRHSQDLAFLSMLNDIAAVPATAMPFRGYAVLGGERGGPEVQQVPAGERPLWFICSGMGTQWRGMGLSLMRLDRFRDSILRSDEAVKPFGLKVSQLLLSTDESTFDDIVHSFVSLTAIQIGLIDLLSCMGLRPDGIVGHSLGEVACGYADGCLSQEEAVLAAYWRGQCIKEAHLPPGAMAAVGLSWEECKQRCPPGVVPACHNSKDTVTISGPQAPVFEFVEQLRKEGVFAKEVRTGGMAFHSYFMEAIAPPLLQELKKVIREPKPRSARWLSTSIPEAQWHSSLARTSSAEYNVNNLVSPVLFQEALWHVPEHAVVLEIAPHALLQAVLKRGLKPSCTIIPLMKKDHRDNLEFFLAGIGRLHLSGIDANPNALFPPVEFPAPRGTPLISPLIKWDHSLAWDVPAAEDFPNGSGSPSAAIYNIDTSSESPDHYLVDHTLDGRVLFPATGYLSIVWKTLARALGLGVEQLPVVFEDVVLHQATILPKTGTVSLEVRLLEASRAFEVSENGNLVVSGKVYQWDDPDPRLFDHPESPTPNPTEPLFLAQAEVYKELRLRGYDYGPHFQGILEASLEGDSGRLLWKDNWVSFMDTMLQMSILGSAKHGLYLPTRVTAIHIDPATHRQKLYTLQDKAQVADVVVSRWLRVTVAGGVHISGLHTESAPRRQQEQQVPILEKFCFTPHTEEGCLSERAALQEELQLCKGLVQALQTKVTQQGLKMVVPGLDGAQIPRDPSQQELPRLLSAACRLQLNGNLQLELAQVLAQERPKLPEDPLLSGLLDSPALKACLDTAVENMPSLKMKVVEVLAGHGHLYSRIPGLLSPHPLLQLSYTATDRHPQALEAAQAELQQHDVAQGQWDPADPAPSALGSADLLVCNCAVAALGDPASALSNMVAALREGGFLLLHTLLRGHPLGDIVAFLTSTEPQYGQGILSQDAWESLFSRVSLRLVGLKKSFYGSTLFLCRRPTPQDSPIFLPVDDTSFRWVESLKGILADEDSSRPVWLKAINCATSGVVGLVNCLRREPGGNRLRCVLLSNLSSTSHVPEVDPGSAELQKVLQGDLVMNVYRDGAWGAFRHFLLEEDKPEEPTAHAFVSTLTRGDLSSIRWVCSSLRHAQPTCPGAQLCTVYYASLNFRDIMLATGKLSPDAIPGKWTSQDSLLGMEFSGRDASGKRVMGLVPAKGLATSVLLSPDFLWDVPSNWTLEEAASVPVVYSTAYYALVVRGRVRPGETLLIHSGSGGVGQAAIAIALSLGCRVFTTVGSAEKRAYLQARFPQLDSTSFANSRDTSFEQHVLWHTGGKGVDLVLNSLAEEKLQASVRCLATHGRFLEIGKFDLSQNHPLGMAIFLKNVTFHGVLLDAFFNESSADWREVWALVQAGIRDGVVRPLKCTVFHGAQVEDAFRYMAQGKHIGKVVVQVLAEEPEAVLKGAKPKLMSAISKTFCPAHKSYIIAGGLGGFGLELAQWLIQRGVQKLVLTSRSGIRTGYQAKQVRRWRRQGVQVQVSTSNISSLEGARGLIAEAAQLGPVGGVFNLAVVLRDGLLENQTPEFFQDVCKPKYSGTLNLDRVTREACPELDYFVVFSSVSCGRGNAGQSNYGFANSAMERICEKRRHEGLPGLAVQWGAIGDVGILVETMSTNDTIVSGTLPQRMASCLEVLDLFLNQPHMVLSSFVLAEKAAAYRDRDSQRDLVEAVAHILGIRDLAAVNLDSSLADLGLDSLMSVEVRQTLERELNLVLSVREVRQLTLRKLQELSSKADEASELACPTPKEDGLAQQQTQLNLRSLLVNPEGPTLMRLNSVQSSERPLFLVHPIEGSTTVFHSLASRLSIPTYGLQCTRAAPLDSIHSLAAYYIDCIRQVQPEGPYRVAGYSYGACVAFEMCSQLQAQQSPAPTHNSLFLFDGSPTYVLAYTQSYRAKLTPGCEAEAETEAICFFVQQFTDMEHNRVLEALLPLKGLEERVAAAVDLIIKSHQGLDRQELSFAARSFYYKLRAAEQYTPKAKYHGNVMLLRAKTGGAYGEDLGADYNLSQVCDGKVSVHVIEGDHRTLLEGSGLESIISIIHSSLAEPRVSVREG

For N#Cc1cc2nc(O)c(O)nc2cc1[N+](=O)[O-], the IC50 [1] was 19.6 µM (active) and the IC50 [2] was 14.8 µM (active).
For Cc1nc(Cl)c(Cl)n1CCOc1ccccc1, the CC50 [3] was 20.9 µM (active) and the EC50 [4] was 5.31 µM (active).
In the case of Cc1ccc(C(CNS(=O)(=O)c2ccc([N+](=O)[O-])cc2)N2CCN(C)CC2)cc1 (centres undefined), the EC50 [5] is reported as 1.65 µM (active), the EC50 [6] is reported as > 60 µM (not active) and the EC50 [4] is reported as 0.0093 µM (active).
In the case of Cc1ccc(-n2cccc2C(=S)N=P(N(C)C)(N(C)C)N(C)C)cc1, the EC50 [5] is reported as 0.148 µM (active), the CC50 [7] is reported as > 40 µM (active) and the EC50 [6] is reported as > 30 µM (not active). For the same molecule, the AC50 [8] was 6.81 µM (active).
In the case of CCOC(=O)c1c(S(=O)(=O)N2CCC(C)CC2)c(C)n(C)c1C, the EC50 [9] is reported as > 350 µM (not active) and the EC50 [10] is reported as > 350 µM (not active).
In the case of CCCOc1ccc(C(=O)NC(=S)NCc2cccnc2)cc1, the CC50 [7] is reported as > 40 µM (active).
With CC1CCCN(CCCN2C(=O)C3C(C(=O)Nc4ccc(Cl)cc4)C4C=CC3(O4)C2C(=O)NC2CCCCC2)C1 (centres undefined) the EC50 [4] was 0.335 µM (active).
With CCn1cc(C(=O)NCc2ccc(C)cc2)c(=O)c2cc(S(=O)(=O)N(C)C)ccc21 the IC50 [1] was 11.4 µM (active) and the IC50 [2] was 11.1 µM (active).
For Cc1cccc(C2Nc3ccccc3C(=O)N2NC(=O)c2ccc([N+](=O)[O-])cc2)n1 (centres undefined), the IC50 [1] was 10.4 µM (active) and the IC50 [2] was 12.8 µM (active).
With COc1ccc2c(c1)OC[C@H]1[C@H]2N2C(=O)c3cc(OC)ccc3NC(=O)[C@@]2(C)[C@H]1c1ccccc1 the AC50 [11] was 16.1 µM (active), the IC50 [1] was 12.7 µM (active) and the IC50 [2] was 13.7 µM (active).
In the case of O=C(O)c1ccc(/C=C/c2ccc3cccc(O)c3n2)cc1, the IC50 [12] is reported as 55.5 µM (active) and the IC50 [13] is reported as 13 µM (active).
In the case of O=C(CN1C(=O)C2C3CC(C(Br)C3Br)C2C1=O)N1CCOCC1 (centres undefined), the IC50 [12] is reported as 47.5 µM (active).
With COc1cccc(NC(=O)c2cc([N+](=O)[O-])ccc2NC(=O)CNCC2CCCO2)c1 (centres undefined) the IC50 [1] was 12.3 µM (active) and the IC50 [2] was 13.1 µM (active).
In the case of c1ccc2c(c1)CCN(c1nc3cc4c(cc3s1)OCCO4)C2, the CC50 [7] is reported as > 40 µM (active).
In the case of COc1ccc(Nc2nnc(SCC(=O)N3CCCC3)s2)cc1, the IC50 [12] is reported as 10.1 µM (active).

From ChEMBL document CHEMBL1201862, “PubChem BioAssay data set” (2004)
